Experiment: Intravenous safety of motilin in rats
Assay type: in vivo
Conditions: 10 mg/kg intravenously
Text: The preparation usually contains a therapeutically effective quantity, suitably about 0.05 to about 5% by weight, preferably about 0.1 to about 2% by weight, of motilin.

## motilin
  mortality: did not die

From patent publication US5011824A, “Rectal motilin preparation” (Kyowa Hakko Kogyo Co., Ltd., priority 1988, dated 1991)
